# PMC10881971, “Hepa-ToxMOA: a pathway-screening method for evaluating cellular stress and hepatic metabolic-dependent toxicity of natural products” (Scientific Reports, 2024)
# How the values were obtained:
# [1] = system: diabetic C57BL/KsJ-db/db mice; parameters: method as in PMID 29554661; conditions: cited from earlier work
# [2] = system: AP1, P53, Nrf2, and NF-κB; conditions: for Toxic (natural products exceeding Score 3, Venn diagram list Fig. 3c): human
# CYP3A4 [3] = conditions: cited from earlier work
# CYP3A = system: CYP3A; parameters: method as in PMID 30778299; conditions: cited from earlier work
# CYP3A5 = system: CYP3A5; parameters: method as in doi:10.1016/j.ccr.2020.213600; conditions: cited from earlier work
# NF-κB = NF-κB cell line, CPPA 6.25, 12.5, 25 μM, 24 h, S9 fraction (Fig. 2b)
# [4] = system: Hepa-ToxMOA cell lines (HepG2); conditions: four Hepa-ToxMOA cell lines, increasing CPPA concentration (6.25, 12.5, 25 μM), 1% S9 treatment, 24 h
# AP1 = AP1 cell line, CPPA 6.25, 12.5, 25 μM, 24 h, S9 fraction (Fig. 2b)
# liver fibrosis = system: liver fibrosis; parameters: method as in PMID 30502394; conditions: cited from earlier work
# diabetic mice = system: diabetic mice; parameters: method as in PMID 34678724; conditions: cited from earlier work
# CYP2C19 = system: CYP2C19; parameters: method as in PMID 25815638; conditions: causing mitochondrial dysfunction and hepatotoxicity; cited from earlier work
# CYP3A4 [5] = system: CYP3A4; parameters: method as in PMID 20959500; conditions: via the activation of NR1I2; cited from earlier work
structure (smiles),measurement,setting,value
CC(C)=CC[C@H](O)C1=CC(=O)c2c(O)ccc(O)c2C1=O [Alkannin],effect on liver injury,[1],hepatoprotective effects
same,sum of activity scores compared between metabolic activation and non-metabolic conditions,[2],more active without metabolic activation
same,toxicity in Hepa-ToxMOA cell lines under metabolic activity conditions,[2],reduced toxicity
same,"Toxic (natural products exceeding Score 3, Venn diagram list Fig. 3c)",[2],S9- only
CC(=O)O[C@H]1C[C@]2(O)[C@@H]3CC[C@@H]4C[C@@H](O)CC[C@]4(C)[C@H]3CC[C@]2(C)[C@H]1c1ccc(=O)oc1 [Bufotalin],substrate of CYP3A4,CYP3A4 [3],substrates
same,metabolism by CYP3A,CYP3A,metabolized by CYP3A to 5ß-hydroxy-bufotalin
same,substrate of CYP3A5,CYP3A5,substrates
same,active (increased GFP intensity) for all Hepa-ToxMOA cell lines (Fig. 3d),[2],commonly active
same,sum of activity scores compared between metabolic activation and non-metabolic conditions,[2],more active without metabolic activation
same,"Toxic (natural products exceeding Score 3, Venn diagram list Fig. 3c)",[2],S9- only
"O=P1(N(CCCl)CCCl)NCCCO1 (stereo not drawn) [CPPA, cyclophosphamide, reference compound]",GFP intensity,Nrf2,increased in a dose-dependent manner
same,GFP intensity,NF-κB,increased in a dose-dependent manner
same,GFP intensity with S9 fractions compared to without S9 fractions,[2],higher
same,cell viability,[4],significantly reduced
same,GFP intensity,AP1,increased in a dose-dependent manner
same,GFP intensity,P53,"tendency to increase, although not in a dose-dependent manner"
CC(C)=CCc1c(O)cc2oc3cc(O)c(O)c(CC=C(C)C)c3c(=O)c2c1O [Gamma-mangostin],effect on liver fibrosis,liver fibrosis,alleviate liver fibrosis
same,fasting blood glucose levels,diabetic mice,attenuate fasting blood glucose levels
O=C(O)c1cc(O)c2c(c1)C(=O)c1cccc(O)c1C2=O [Rhein],metabolic activation by CYP2C19,CYP2C19,metabolically activated by CYP2C19
"CC[C@]1(O)C[C@@H]2CN(CCc3c([nH]c4ccccc34)[C@@](C(=O)OC)(c3cc4c(cc3OC)N(C)[C@H]3[C@@](O)(C(=O)OC)[C@H](OC(C)=O)[C@]5(CC)C=CCN6CC[C@]43[C@@H]65)C2)C1 [vinblastine, reference compound]",substrate of CYP3A4,CYP3A4 [3],substrate
same,induction of CYP3A4,CYP3A4 [5],induce CYP3A4
